Earlier results on two molecules are cited in patent publication US6277963A, “Antibodies directed toward extracellular signal-related kinases” (Regeneron Pharmaceuticals, Inc., priority 1997, dated 2001).

As usually defined, the Km is the substrate concentration at which the rate is half of its maximum.

The series concerns the target MAP2 kinase (partially purified enzyme) (Mus musculus, UniProt P63085).

Sequence of MAP2 kinase (partially purified enzyme) (P63085 whole entry): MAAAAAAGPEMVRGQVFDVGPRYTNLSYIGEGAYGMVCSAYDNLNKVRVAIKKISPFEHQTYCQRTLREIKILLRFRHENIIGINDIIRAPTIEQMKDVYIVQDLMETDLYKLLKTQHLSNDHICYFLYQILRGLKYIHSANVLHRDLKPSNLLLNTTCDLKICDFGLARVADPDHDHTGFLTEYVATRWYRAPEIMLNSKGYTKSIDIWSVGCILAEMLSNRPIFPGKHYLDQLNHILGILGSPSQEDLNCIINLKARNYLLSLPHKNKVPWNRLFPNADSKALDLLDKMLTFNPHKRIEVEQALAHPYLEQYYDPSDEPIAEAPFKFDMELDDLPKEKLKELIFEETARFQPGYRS

With `Nc1ncnc2c1ncn2[C@@H]1O[C@H](COP(=O)(O)OP(=O)(O)OP(=O)(O)O)[C@@H](O)[C@H]1O` [ATP], under “read-out: Km for ATP”, the Km is 7 µM.

Take `Nc1nc2c(ncn2[C@@H]2O[C@H](COP(=O)(O)OP(=O)(O)OP(=O)(O)O)[C@@H](O)[C@H]2O)c(=O)[nH]1` [GTP]: the “utilization of GTP” value is on record as “did not appear to utilize GTP”.
